Experimental data from patent EP3046573B1, “AMYLIN ANALOGUES” (Zealand Pharma A/S, priority 2013, dated 2015).
Numbered stars: 1 amine (or outer) side, 2 acyl side, 3 side chain; on linkers, the order of the positions; unused ones are H or OH. Bridge positions count the residues as written; N and C are the ends. Square brackets hold non-standard residues; d marks the D form. Peptide text beside a SMILES is read from it. * marks the point of attachment. C20 diacid = O=C(O)CCCCCCCCCCCCCCCCCCC(=O)*; γGlu = O=C(O)[C@H](CCC(=O)[*:2])N[*:1]; NMeI = CC[C@H](C)[C@H](NC)C(=O)O; Sar = CNCC(=O)O

Tests used:
[1] = biological target: T1, human amylin receptor 3 (hAMYR3) consisting of hCTR2 co-expressed with human Receptor Activity Modifying Protein 3 (hRAMP3) (Homo sapiens, UniProt O60896+P30988); experiment: hAMYR3 assay: induction of cAMP (AlphaScreen cAMP Assay kit) in COS7 cells expressing hAMYR3; format: cell-based
T1 construct: expressed in transfected cells
T1 sequence (P30988 25-474): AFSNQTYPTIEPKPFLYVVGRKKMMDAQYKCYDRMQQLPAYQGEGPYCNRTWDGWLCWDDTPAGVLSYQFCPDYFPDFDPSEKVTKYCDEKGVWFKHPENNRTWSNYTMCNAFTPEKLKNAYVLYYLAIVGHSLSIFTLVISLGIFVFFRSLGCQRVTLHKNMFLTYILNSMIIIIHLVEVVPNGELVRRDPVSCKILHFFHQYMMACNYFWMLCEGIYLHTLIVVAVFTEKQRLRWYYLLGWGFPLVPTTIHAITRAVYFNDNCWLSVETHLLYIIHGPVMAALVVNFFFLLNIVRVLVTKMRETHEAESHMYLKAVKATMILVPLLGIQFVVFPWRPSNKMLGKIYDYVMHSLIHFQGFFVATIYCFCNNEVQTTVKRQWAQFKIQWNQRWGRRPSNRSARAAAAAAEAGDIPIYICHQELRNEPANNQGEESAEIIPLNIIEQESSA
T1 sequence (O60896 24-148 partner): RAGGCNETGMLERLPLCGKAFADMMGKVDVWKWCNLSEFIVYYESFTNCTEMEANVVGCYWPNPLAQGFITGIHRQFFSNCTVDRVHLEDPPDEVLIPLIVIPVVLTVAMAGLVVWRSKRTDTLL
Procedure, shortened: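 Stable COS7 clone co-expressing hCTR2 and hRAMP3, stimulated 15 min at 37° C with increasing peptide in Tyrode buffer pH 7.4 with 100 µM IBMX and 0.1% casein. cAMP measured by AlphaScreen after lysis; EC50 and % efficacy versus pramlintide from 4PL fit.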

[2] = biological target: T2, human calcitonin receptor (hCTR2) (Homo sapiens, UniProt P30988); experiment: hCTR2 assay: induction of cAMP (AlphaScreen cAMP Assay kit) in COS7 cells expressing hCTR2; format: cell-based; details: cAMP induction in COS7 cells expressing hCTR2; average of a minimum of 3 determinations; read-out: hCTR2 EC50
T2 construct: expressed in transfected cells
T2 sequence (P30988 25-474): T1 sequence (P30988 25-474)
Procedure, shortened: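 Functional agonism is measured as cAMP accumulation in a COS7 line stably transfected with hCTR2, lacking endogenous RAMPs. Peptides act for 15 min at 37° C with IBMX present, and curves are fitted with a 4-parameter logistic model.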

[3] = Solubility assessment (turbidity absorbance at 325 nm); format: physicochemical; details: stock 2 mg/ml diluted 1:1, ambient temperature (typically 25°C), n=1; for Solubility, Acetate buffer pH 4: 100 mM acetate buffer pH 4.0; for Solubility, Acetate buffer pH 5: 100 mM acetate buffer pH 5.0; for Solubility, Histidine buffer pH 6: 100 mM histidine buffer pH 6.0; for Solubility, Histidine buffer pH 7: 100 mM histidine buffer pH 7.0; for Solubility, Phosphate buffer pH 6: 100 mM phosphate buffer pH 6.0; for Solubility, Phosphate buffer pH 7: 100 mM phosphate buffer pH 7.0; for Solubility, Phosphate buffer pH 7.5: 100 mM phosphate buffer pH7.5
Procedure, shortened: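 Peptide stock (2 mg/ml, water pH 2.5) diluted 1:1 into 100 mM acetate (pH 4.0, 5.0), histidine (pH 6.0, 7.0) or phosphate (pH 6.0–7.5) buffer; absorbance at 325 nm read at about 25°C, n=1. A325 ≤ 0.02 taken as solubility ≥ 1 mg/ml.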

For `CC[C@H](C)[C@@H](C(=O)N[C@@H](CC(C)C)C(=O)N[C@@H](CO)C(=O)N[C@@H](CO)C(=O)N[C@H](C(=O)N[C@@H](CCC(=O)O)C(=O)N[C@H](C(=O)NCC(=O)N[C@@H](CO)C(=O)N[C@@H](CCC(=O)O)C(=O)N[C@H](C(=O)N1CCC[C@H]1C(N)=O)[C@@H](C)O)C(C)C)[C@@H](C)O)N(C)C(=O)[C@H](C)NC(=O)CN(C)C(=O)[C@H](Cc1ccccc1)NC(=O)[C@H](CO)NC(=O)[C@H](CO)NC(=O)[C@H](CO)NC(=O)[C@H](CO)NC(=O)[C@H](CCCNC(=N)N)NC(=O)[C@H](Cc1c[nH]cn1)NC(=O)[C@H](CC(C)C)NC(=O)[C@H](Cc1ccccc1)NC(=O)[C@H](CCC(=O)O)NC(=O)[C@H](C)NC(=O)[C@H](CC(C)C)NC(=O)[C@H](CCCNC(=N)N)NC(=O)[C@H](CCC(N)=O)NC(=O)[C@@H](NC(=O)[C@H](C)NC(=O)[C@@H]1CSSC[C@H](NC(=O)[C@H](CCCNC(=N)N)NC(=O)CC[C@H](NC(=O)CCCCCCCCCCCCCCCCCCC(=O)O)C(=O)O)C(=O)N2CCC[C@H]2C(=O)N[C@@H]([C@@H](C)O)C(=O)N[C@@H](C)C(=O)N[C@@H]([C@@H](C)O)C(=O)N1)[C@@H](C)O` [Compound 129, [19CD]-isoGlu-RC()PTATC()ATQRLAEFLHRSSSSF-Gly(Me)-A-Ile(Me)-LSSTEVGSETP-NH2] ({C20 diacid-γGlu}-RCPTATCATQRLAEFLHRSSSSF[Sar]A[NMeI]LSSTEVGSETP-NH2; disulfide 2-7), the EC50 [1] was 0.15 nM, the EC50 [2] was 0.15 nM and the “Solubility, Acetate buffer pH 4” value [3] was “SS (SS indicates solubility ≥ 1mg/ml)”. The “Solubility, Acetate buffer pH 5” value [3] was “SS (SS indicates solubility ≥ 1mg/ml)”, the “Solubility, Histidine buffer pH 6” value [3] was “SS (SS indicates solubility ≥ 1mg/ml)” and the “Solubility, Histidine buffer pH 7” value [3] was “SS (SS indicates solubility ≥ 1mg/ml)”. For the same molecule, the “Solubility, Phosphate buffer pH 6” value [3] was “SS (SS indicates solubility ≥ 1mg/ml)”, the “Solubility, Phosphate buffer pH 7” value [3] was “SS (SS indicates solubility ≥ 1mg/ml)” and the “Solubility, Phosphate buffer pH 7.5” value [3] was “SS (SS indicates solubility ≥ 1mg/ml)”.

With `CC[C@H](C)[C@@H](C(=O)N[C@@H](CC(C)C)C(=O)N[C@@H](CO)C(=O)N[C@@H](CO)C(=O)N[C@H](C(=O)N[C@@H](CCC(=O)O)C(=O)N[C@H](C(=O)NCC(=O)N[C@@H](CO)C(=O)N[C@@H](CCC(=O)O)C(=O)N[C@H](C(=O)N1CCC[C@H]1C(N)=O)[C@@H](C)O)C(C)C)[C@@H](C)O)N(C)C(=O)[C@H](C)NC(=O)CN(C)C(=O)[C@H](Cc1ccccc1)NC(=O)[C@H](CO)NC(=O)[C@H](CO)NC(=O)[C@H](CO)NC(=O)[C@H](CO)NC(=O)[C@H](CCCNC(=N)N)NC(=O)[C@H](Cc1c[nH]cn1)NC(=O)[C@H](CC(C)C)NC(=O)[C@H](Cc1ccccc1)NC(=O)[C@H](CCC(=O)O)NC(=O)[C@H](C)NC(=O)[C@H](CC(C)C)NC(=O)[C@H](CCCNC(=N)N)NC(=O)[C@H](CCC(N)=O)NC(=O)[C@@H](NC(=O)[C@H](C)NC(=O)[C@@H]1CSSC[C@H](NC(=O)[C@H](CCCNC(=N)N)NC(=O)CC[C@H](NC(=O)CCCCCCCCCCCCCCCCCCC(=O)O)C(=O)O)C(=O)NCC(=O)N[C@@H]([C@@H](C)O)C(=O)N[C@@H](C)C(=O)N[C@@H]([C@@H](C)O)C(=O)N1)[C@@H](C)O` [Compound 130, [19CD]-isoGlu-RC()GTATC()ATQRLAEFLHRSSSSF-Gly(Me)-A-Ile(Me)-LSSTEVGSETP-NH2] ({C20 diacid-γGlu}-RCGTATCATQRLAEFLHRSSSSF[Sar]A[NMeI]LSSTEVGSETP-NH2; disulfide 2-7) the EC50 [1] was 0.15 nM, the EC50 [2] was 0.11 nM and the “Solubility, Acetate buffer pH 4” value [3] was “SS (SS indicates solubility ≥ 1mg/ml)”. For the same molecule, the “Solubility, Acetate buffer pH 5” value [3] was “SS (SS indicates solubility ≥ 1mg/ml)”, the “Solubility, Histidine buffer pH 6” value [3] was “SS (SS indicates solubility ≥ 1mg/ml)” and the “Solubility, Histidine buffer pH 7” value [3] was “SS (SS indicates solubility ≥ 1mg/ml)”. For the same molecule, the “Solubility, Phosphate buffer pH 6” value [3] was “SS (SS indicates solubility ≥ 1mg/ml)”, the “Solubility, Phosphate buffer pH 7” value [3] was “SS (SS indicates solubility ≥ 1mg/ml)” and the “Solubility, Phosphate buffer pH 7.5” value [3] was “SS (SS indicates solubility ≥ 1mg/ml)”.

With `CC[C@H](C)[C@@H](C(=O)N[C@@H](CC(C)C)C(=O)N[C@@H](CO)C(=O)N[C@@H](CO)C(=O)N[C@H](C(=O)N[C@@H](CCC(=O)O)C(=O)N[C@H](C(=O)NCC(=O)N[C@@H](CO)C(=O)N[C@@H](CCC(=O)O)C(=O)N[C@H](C(=O)N1CCC[C@H]1C(N)=O)[C@@H](C)O)C(C)C)[C@@H](C)O)N(C)C(=O)[C@H](C)NC(=O)CN(C)C(=O)[C@H](Cc1ccccc1)NC(=O)[C@H](CO)NC(=O)[C@H](CO)NC(=O)[C@H](CO)NC(=O)[C@H](CO)NC(=O)[C@H](CCCNC(=N)N)NC(=O)[C@H](Cc1c[nH]cn1)NC(=O)[C@H](CC(C)C)NC(=O)[C@H](Cc1ccccc1)NC(=O)[C@H](CCC(=O)O)NC(=O)[C@H](C)NC(=O)[C@H](CC(C)C)NC(=O)[C@H](CCCNC(=N)N)NC(=O)CNC(=O)[C@@H](NC(=O)[C@H](C)NC(=O)[C@@H]1CSSC[C@H](NC(=O)[C@H](CCCNC(=N)N)NC(=O)CC[C@H](NC(=O)CCCCCCCCCCCCCCCCCCC(=O)O)C(=O)O)C(=O)NCC(=O)N[C@@H]([C@@H](C)O)C(=O)N[C@@H](C)C(=O)N[C@@H]([C@@H](C)O)C(=O)N1)[C@@H](C)O` [Compound 131, [19CD]-isoGlu-RC()GTATC()ATGRLAEFLHRSSSSF-Gly(Me)-A-Ile(Me)-LSSTEVGSETP-NH2] ({C20 diacid-γGlu}-RCGTATCATGRLAEFLHRSSSSF[Sar]A[NMeI]LSSTEVGSETP-NH2; disulfide 2-7) the EC50 [1] was 0.18 nM, the EC50 [2] was 0.1 nM and the “Solubility, Acetate buffer pH 4” value [3] was “SS (SS indicates solubility ≥ 1mg/ml)”. The “Solubility, Acetate buffer pH 5” value [3] was “SS (SS indicates solubility ≥ 1mg/ml)”, the “Solubility, Histidine buffer pH 6” value [3] was “SS (SS indicates solubility ≥ 1mg/ml)” and the “Solubility, Histidine buffer pH 7” value [3] was “SS (SS indicates solubility ≥ 1mg/ml)”. The “Solubility, Phosphate buffer pH 6” value [3] was “SS (SS indicates solubility ≥ 1mg/ml)”, the “Solubility, Phosphate buffer pH 7” value [3] was “SS (SS indicates solubility ≥ 1mg/ml)” and the “Solubility, Phosphate buffer pH 7.5” value [3] was “SS (SS indicates solubility ≥ 1mg/ml)”.
